For orientation: IC50 means the midpoint of a concentration-inhibition curve.

The results in this text go back to patent US11718631B2, “Sulphonamides and compositions thereof for treating conditions associated with NLRP activity” (Novartis AG, priority 2017, dated 2023).

In the assay the target is T1, NLRP3 (Homo sapiens, UniProt Q96P20).
T1 construct: IL-1β Production in PMA-Differentiated THP-1 Cells Stimulated with Gramicidin; host or cells: THP-1 cells, PMA-differentiated
T1 sequence (Q96P20 whole entry): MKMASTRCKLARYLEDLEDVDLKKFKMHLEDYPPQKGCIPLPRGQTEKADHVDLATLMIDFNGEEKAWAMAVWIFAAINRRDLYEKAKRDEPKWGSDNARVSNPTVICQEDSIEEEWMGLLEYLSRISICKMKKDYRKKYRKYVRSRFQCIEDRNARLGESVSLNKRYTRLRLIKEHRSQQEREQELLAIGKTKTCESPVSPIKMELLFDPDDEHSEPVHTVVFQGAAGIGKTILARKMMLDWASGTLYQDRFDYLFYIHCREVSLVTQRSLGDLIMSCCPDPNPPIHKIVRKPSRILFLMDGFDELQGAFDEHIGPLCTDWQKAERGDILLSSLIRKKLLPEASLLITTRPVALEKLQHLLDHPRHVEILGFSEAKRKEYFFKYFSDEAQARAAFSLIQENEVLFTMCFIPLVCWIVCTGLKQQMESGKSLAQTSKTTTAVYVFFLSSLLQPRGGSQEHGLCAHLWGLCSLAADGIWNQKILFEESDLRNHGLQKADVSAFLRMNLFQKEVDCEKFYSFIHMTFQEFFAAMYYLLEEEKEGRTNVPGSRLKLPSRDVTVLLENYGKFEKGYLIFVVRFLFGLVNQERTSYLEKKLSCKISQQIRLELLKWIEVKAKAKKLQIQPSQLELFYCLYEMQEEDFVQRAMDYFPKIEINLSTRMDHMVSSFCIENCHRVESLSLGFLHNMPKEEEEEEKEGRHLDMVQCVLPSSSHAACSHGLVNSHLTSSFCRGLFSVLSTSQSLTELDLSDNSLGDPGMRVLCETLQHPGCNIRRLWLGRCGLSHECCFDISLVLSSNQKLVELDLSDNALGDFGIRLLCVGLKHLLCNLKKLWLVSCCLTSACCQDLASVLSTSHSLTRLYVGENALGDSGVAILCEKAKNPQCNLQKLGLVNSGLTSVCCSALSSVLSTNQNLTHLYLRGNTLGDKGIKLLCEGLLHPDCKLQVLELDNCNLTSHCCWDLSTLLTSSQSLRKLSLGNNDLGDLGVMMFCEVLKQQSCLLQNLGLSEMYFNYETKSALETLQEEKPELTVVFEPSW
The experiment in a line: IL-1β production in PMA-differentiated THP-1 cells stimulated with gramicidin (hTHP-1 assay). It is filed as cell-based. To be noted: hTHP-1 assay containing 2% fetal bovine serum; average IC50, class symbols; read-out: NLRP3 Antagonist, human THP1 NLRP3, IL-1b, Normalized: GeoMean IC50. The procedure: IL-1β Production in PMA-Differentiated THP-1 Cells Stimulated with Gramicidin.
THP-1 cells were purchased from the American Type Culture Collection and sub-cultured according to instructions from the supplier. […] Prior to the experiment THP-1 were treated with PMA (Phorbol 12-myristate 13-acetate) (20 ng/ml) for 16-18 hours. On the day of the experiment the media was removed and adherent cells were detached with trypsin for 5 minutes. […] A vehicle only control was run concurrently with each experiment. Final DMSO concentration was 0.38%.
THP-1 cells were purchased from the American Type Culture Collection and sub-cultured according to instructions from the supplier. […] Prior to the experiment THP-1 were treated with PMA (Phorbol 12-myristate 13-acetate) (20 ng/ml) for 16-18 hours. Compounds were dissolved in dimethyl sulfoxide (DMSO) to generate a 30 mM stock. On the day of the experiment the media was removed and adherent cells were detached with trypsin for 5 minutes. […] Final DMSO concentration was at 0.37%. Cells were incubated with compounds for 1 hour and then stimulated with gramicidin (5 μM) (Enzo) for 2 hours. Plates were then centrifuged at 340 g for 5 min. Cell free supernatant (40 μL) was collected using a 96-channel PlateMaster (Gilson) and the production of IL-1p was evaluated by HTRF (cisbio).
IL-1p Production in PMA-Differentiated THP-1 Cells Stimulated with Gramicidin.
THP-1 cells were purchased from the American Type Culture Collection and sub-cultured according to instructions from the supplier. […] Prior to the experiment, compounds were dissolved in dimethyl sulfoxide (DMSO) to generate a 30 mM stock. […] DMSO was backfilled in the plate to achieve a final DMSO assay concentration of 0.37%. The plate was then sealed and stored at room temperature until required.
THP-1 cells were treated with PMA (Phorbol 12-myristate 13-acetate) (20 ng/ml) for 16-18 hours. On the day of the experiment the media was removed and adherent cells were detached with trypsin for 5 minutes. […] The plates were incubated for 18 h at 4° C. and read using the preset HTRF program (donor emission at 620 nm, acceptor emission at 668 nm) of the SpectraMax i3x spectrophotometer (Molecular Devices, software SoftMax 6).
`CC(C)c1cc(C2Cc3ccccc3C2)cc(C(C)C)c1CC(=O)NS(=O)(=O)c1ccc(CN(C)C)cc1` [Compound 323, 2-[4-(2,3-dihydro-1H-inden-2-yl)-2,6-bis(propan-2-yl)phenyl]-N-{4-[(dimethylamino)methyl]benzene-sulfonyl}acetamide]: the IC50 fell in the range of 1000 to 5000 nM.
Turning to `C/C=C(\C)c1cc(C(C)C)c(CC(=O)NS(=O)(=O)c2ccc(CN(C)C)cc2)c(C(C)C)c1` [Compound 145], the IC50 is 1000 to 5000 nM.
Regarding `CC(C)c1cc(C#CC2CCCC2)cc(C(C)C)c1CC(=O)NS(=O)(=O)c1ccc(CN(C)C)cc1` [Compound 370, 2-[4-(2-cyclopentylethynyl)-2,6-bis(propan-2-yl)phenyl]-N-{4-[(dimethylamino)methyl]benzene-sulfonyl}acetamide], the IC50 is 40 to 200 nM.
As for `CC(C)c1cc(-c2ccc3ccccc3c2)cc(C(C)C)c1CC(=O)NS(=O)(=O)c1ccc(CN(C)C)cc1` [Compound 139, N-[4-[(dimethylamino)methyl]phenyl] sulfonyl-2-[4-naphthalen-2-yl-2,6-di(propan-2-yl)phenyl] acetamide], the IC50 was 40 to 200 nM.
In the case of `CC(C)c1cc(-c2ccc3c(ccn3C(=O)OC(C)(C)C)c2)cc(C(C)C)c1CC(=O)NS(=O)(=O)c1ccc(CN(C)C)cc1` [Compound 115, tert-butyl 5-[4-[2-[[4-[(dimethylamino)methyl]phenyl]sulfonylamino]-2-oxoethyl]-3,5-di(propan-2-yl)phenyl]indole-1-carboxylate], the IC50 lay within 5000 to 30000 nM.
Take `CC(C)c1cc(-c2ccccc2OCc2ccccc2)cc(C(C)C)c1CC(=O)NS(=O)(=O)c1ccc(CN(C)C)cc1` [Compound 102, N-[4-[(dimethylamino)methyl]phenyl] sulfonyl-2-[4-(2-phenylmethoxy-phenyl)-2,6-di(propan-2-yl)phenyl]acetamide]: the IC50 lay within 5000 to 30000 nM.
Turning to `CC(C)c1cc(-c2ccc(Cl)c(Cl)c2)cc(C(C)C)c1CC(=O)NS(=O)(=O)c1ccc(CN(C)C)cc1` [Compound 119, 2-[4-(3,4-dichlorophenyl)-2,6-di(propan-2-yl)phenyl]-N-[4-[(dimethylamino)methyl]phenyl] sulfonylacetamide], the IC50 lay within 200 to 1000 nM.
For the molecule `CC(C)c1cc(CC2=CCCCC2)cc(C(C)C)c1CC(=O)NS(=O)(=O)c1ccc(CN(C)C)cc1` [Compound 377, 2-[4-(cyclohex-1-en-1-ylmethyl)-2,6-bis(propan-2-yl)phenyl]-N-{4-[(dimethylamino)methyl]benzenesulfonyl}acetamide], the IC50 lay in the range of 1000 to 5000 nM.
As to `CC(C)c1cc(C2CCCC2)cc(C(C)C)c1CC(=O)NS(=O)(=O)c1ccc(CN(C)C)cc1` [Compound 355, 2-[4-cyclopentyl-2,6-bis(propan-2-yl)phenyl]-N-{4-[(dimethylamino)methyl]benzene-sulfonyl}acetamide], the IC50 lay within 5000 to 30000 nM.
With `CC(C)c1cc(C2CCc3ccccc32)cc(C(C)C)c1CC(=O)NS(=O)(=O)c1ccc(CN(C)C)cc1` (stereo not shown) [Compound 322, 2-[4-(2,3-dihydro-1H-inden-1-yl)-2,6-bis(propan-2-yl)phenyl]-N-{4-[(dimethylamino)methyl]benzene-sulfonyl}acetamide], the IC50 lay within 200 to 1000 nM.
Take `Cc1ccc(-c2cc(C(C)C)c(CC(=O)NS(=O)(=O)c3ccc(CN(C)C)cc3)c(C(C)C)c2)cc1C` [Compound 118, N-[4-[(dimethylamino)methyl]phenyl] sulfonyl-2-[4-(3,4-dimethylphenyl)-2,6-di(propan-2-yl)phenyl]acetamide]: the IC50 fell in the range of 200 to 1000 nM.
On to `CC(C)c1cc(-c2ccc(Cl)c(F)c2)cc(C(C)C)c1CC(=O)NS(=O)(=O)c1ccc(CN(C)C)cc1` [Compound 120, 2-[4-(4-chloro-3-fluorophenyl)-2,6-di(propan-2-yl)phenyl]-N-[4-[(dimethylamino)methyl]phenyl] sulfonylacetamide], for which the IC50 fell in the range of 1000 to 5000 nM.
Take `CC(C)c1cc(-c2cccc(Cl)c2)cc(C(C)C)c1CC(=O)NS(=O)(=O)c1ccc(CN(C)C)cc1` [Compound 108, 2-[4-(3-chlorophenyl)-2,6-di(propan-2-yl)phenyl]-N-[4-[(dimethylamino)methyl]phenyl] sulfonylacetamide]: the IC50 fell in the range of 200 to 1000 nM.
